# Experimental data from patent US8198446B2, “Crystalline micropowder particles” (Toray Industries, Inc., priority 2007, dated 2012).
# “And” between values parts separate entries of the source, which are not always exact repeats. Equal values may be shown once.
# Tests used:
# Assay type in all cases: physicochemical
# [1] = Check of crystalline state and measurement of degree of crystallinity by powder X-ray diffraction; details: for Degree of Crystallinity: powder X-ray diffraction, Xc=(Sc/(Sc+Sa))×100
# Procedure: The degree of crystallinity of the crystalline finely-ground particles according to the present invention is calculated from the integrated intensity ratio of crystalline peaks and amorphous halo which are extracted from an X-ray diffraction pattern obtained by powder X-ray diffraction measurement.
# The powder X-ray diffraction measurement may be carried out by using, for example, a powder X-ray diffractometer (2200/RINT Ultima+PC) manufactured by Rigaku as described in Evaluation 2 of the present invention. In preparation of a measurement sample, 100 mg of a sample material is filled in a glass sample plate (0.2 mm depth) in non-destructive condition, and the surface of the sample material is leveled out using a glass plate to obtain a measurement sample. An example of the measurement condition is as follows, which was used in the present invention.
# The degree of crystallinity may be calculated by a known analysis method using diffraction patterns of a sample material and sample plate alone (without a sample material) and a difference pattern thereof. For example, using a powder X-ray diffraction pattern analysis software JADE5.0 produced by MDI, which is a commercially available analysis software, a degree of crystallinity may be calculated as follows.
# • (1) A difference pattern of the diffraction patterns of a sample material and sample plate alone is smoothed (Savitzky-Goray filter: 19 points). • (2) For a display area of the difference pattern, the x-axis: diffraction angle (2θ) is set between 2 deg and 90 deg, and the y-axis: diffraction intensity (Counts) is set between 0 and 500. • (3) Points are set at diffraction angles of […], 65 and 90 deg, respectively, and a straight line parallel to the x-axis is drawn such that the line is contact with the difference diffraction pattern at a range of 65 deg to 90 deg. The area below the line is determined as a background. • (4) The background is subtracted. • (5) An integrated intensity at a range of 4 deg to 60 deg is calculated (which corresponds to a sum of the integrated intensity of crystalline peaks and an amorphous halo: Sc+Sa) • (6) Points are set at diffraction angles of 2, 7, 18, 26, 30, 35, 59, 65 and 90 deg, respectively. At 2, 65 and 90 deg, the diffraction intensity is set as 0, and at 7, 18, 26, 30, 35 and 59 deg, an approximation by a cubic spline is made such that the approximation formula is in contact with the difference pattern obtained after the subtraction of the background, thereby estimating an amorphous halo. • (7) The amorphous halo is subtracted. • (8) The integrated intensity at a range of 4 deg to 60 deg is calculated (which corresponds to the integrated intensity of the crystalline peaks: Sc). • (9) A degree of crystallinity is calculated according to the following equation. Xc=(Sc/(Sc+Sa))×100 Equation • Xc: Degree of crystallinity (%) • Sc: Integrated intensity of the crystalline peaks • Sa: Integrated intensity of the amorphous halo
# For check of the crystalline state and measurement of the degree of crystallinity, powder X-ray diffraction measurement was carried out using a powder X-ray diffraction analyzer (2200/RINT Ultima+PC) manufactured by Rigaku.
# [2] = Measurement of particle diameter distribution (laser diffraction, dry measurement, Mastersizer 2000); details: for Particle Diameter Distribution D50 / Particle Diameter Distribution D90: dry measurement, volume basis
# Procedure: In the present invention, D50 and D90 are indices for defining particle diameter distribution. Particle diameter distribution is usually called particle size distribution. Particles are divided into groups along with their size with appropriate intervals, and weight (volume) or particle number of the particles belonging to each group is measured to obtain the particle number (frequency) of each group. Taking the particle number (frequency) along the ordinate and taking the particle diameter along the abscissa, a particle diameter distribution is shown as a histogram, frequency curve, cumulative curve or the like. In the present invention, frequency was calculated based on volume. In the particle diameter distribution obtained in such a manner, D50 means the particle diameter at the point where the volume which is cumulatively measured from smaller particles reaches 50%, that is, the point where the cumulative frequency of the volume distribution reaches 50%. D90 means the particle diameter at the point where the volume which is cumulatively measured from smaller particles reaches 90%, that is, the point where the cumulative frequency of the volume distribution reaches 90%. Cumulative frequency (%) of particles which have a smaller diameter than a specified particle diameter can also be calculated from such a distribution chart.
# Measurement of the particle diameter distribution of the crystalline finely-ground particles according to the present invention may be carried out with a commercially available apparatus using laser diffraction/scattering based on Mie Theory. For example, the measurement is carried out using a commercially available apparatus such as Malvern (registered trademark) Mastersizer Laser Diffraction Analyzer (Malvern Instruments Ltd). This analyzer irradiates He—Ne laser beam and blue light-emitting diode on particles to obtain a light scattering pattern which occurs on a detector by the irradiation, and then analyzes the light scattering pattern according to Mie Theory to determine the particle diameter distribution. […] An example of the measurement condition is as follows, which was used in Evaluation 1 of the present invention.
# • Apparatus: Laser diffraction-based particle size distribution analyzer Mastersizer 2000 (Malvern) • Dry measurement unit: Scircco 2000 • Refractive Index of Samples: Real part; 1.810, Imaginary part; 0 • Time for Sample Measurement: 1 second • Time for Background Measurement: 5 seconds • Pressure: 2.0 bar • Feed Rate: 40% • Analysis Model: Single narrow mode • Calculation Sensitivity Enhanced • Particle Shape Irregular • Analysis Range: 0.020 to 2000 μm • Basis of Size Distribution Measurement: Volume
# The particle diameter distribution of the subject compound was measured by dry measurement using a particle size distribution analyzer (Mastersizer 2000, manufactured by Malvern). D50 and D90 were calculated as an index of the particle diameter distribution.
# [3] = Storage stability (2): total amount of related substances by HPLC, 60° C./75% RH opened
# Procedure: For comparison of storage stability, the ground pharmaceutical active substance of Comparative Example 4 (grinding for 3 min), Comparative Example 5 (grinding for 6 min) and Comparative Example 6 (grinding for 7 min), all of which were ground with Table Ball Mill (model V-2M: manufactured by Irie Shokai), were left under the storage condition of 60° C./75% RH opened, and the total amount of related substances was analyzed by HPLC 0.5 and 2 months after the start of the storage (Table 7).
# [4] = Storage stability (1): content of pharmaceutical active substance by HPLC, 60° C./75% RH opened
# Procedure: For comparison of storage stability, the ground pharmaceutical active substance of Example 6 (crystallinity 88%) which was ground with a jet mill pulverizer Co-jet (α-mkII: manufactured by Seishin Enterprise) and that of Comparative Example 7 (crystallinity 73%) which was ground with a mortar and pestle were left under the storage condition of 60° C./75% RH opened, and the content of the pharmaceutical active substance was analyzed by HPLC 0.5 and 2 months after the start of the storage (Table 6).
# [5] = 60° C./75% RH opened, 0.5-Month Later
# [6] = 60° C./75% RH opened, 2-Month Later
SMILES,Particle Diameter Distribution D50 [2],Particle Diameter Distribution D90 [2],Degree of Crystallinity [1],also measured
"O=C1c2ccccc2C(=O)N1[C@@H]1CC[C@@]2(O)[C@H]3Cc4ccc(O)c5c4[C@@]2(CCN3CC2CC2)[C@H]1O5 [Comparative Example 3, N-(17-cyclopropylmethyl-4,5α-epoxy-3,14-dihydroxy-morphinan-6β-yl)-phthalimide]",–,–,–,crystalline state by powder X-ray diffraction ([1]; Eight hours after grinding with ball mill): converted into an amorphous material
"O=C1c2ccccc2C(=O)N1[C@@H]1CC[C@@]2(O)[C@H]3Cc4ccc(O)c5c4[C@@]2(CCN3CC2CC2)[C@H]1O5 [Example 9, N-(17-cyclopropylmethyl-4,5α-epoxy-3,14-dihydroxy-morphinan-6β-yl)-phthalimide]",11.5 μm,30.9 μm,89%,–
"O=C1c2ccccc2C(=O)N1[C@@H]1CC[C@@]2(O)[C@H]3Cc4ccc(O)c5c4[C@@]2(CCN3CC2CC2)[C@H]1O5 [Example 5, N-(17-cyclopropylmethyl-4,5α-epoxy-3,14-dihydroxy-morphinan-6β-yl)-phthalimide]",7.83 μm,16.0 μm,90%,–
"O=C1c2ccccc2C(=O)N1[C@@H]1CC[C@@]2(O)[C@H]3Cc4ccc(O)c5c4[C@@]2(CCN3CC2CC2)[C@H]1O5 [Example 1, N-(17-cyclopropylmethyl-4,5α-epoxy-3,14-dihydroxy-morphinan-6β-yl)-phthalimide]",4.25 μm,9.14 μm,89%,–
"O=C1c2ccccc2C(=O)N1[C@@H]1CC[C@@]2(O)[C@H]3Cc4ccc(O)c5c4[C@@]2(CCN3CC2CC2)[C@H]1O5 [Comparative Example 1, N-(17-cyclopropylmethyl-4,5α-epoxy-3,14-dihydroxy-morphinan-6β-yl)-phthalimide]",32.4 μm,110 μm,97%,Cumulative Frequency of Volume Distribution Which Is Occupied by Particles with Volume-Based Particle Diameter 15 (μm) or Less [2]: 23.3%
"O=C1c2ccccc2C(=O)N1[C@@H]1CC[C@@]2(O)[C@H]3Cc4ccc(O)c5c4[C@@]2(CCN3CC2CC2)[C@H]1O5 [Comparative Example 5, N-(17-cyclopropylmethyl-4,5α-epoxy-3,14-dihydroxy-morphinan-6β-yl)-phthalimide]",19.2 μm,246 μm,71%,"Total Amount of Related Substances [3, 5]: 0.61%; Total Amount of Related Substances [3, 6]: 1.07%; Total Amount of Related Substances ([3]; At Start of Storage): 0.24%"
"O=C1c2ccccc2C(=O)N1[C@@H]1CC[C@@]2(O)[C@H]3Cc4ccc(O)c5c4[C@@]2(CCN3CC2CC2)[C@H]1O5 [Comparative Example 6, N-(17-cyclopropylmethyl-4,5α-epoxy-3,14-dihydroxy-morphinan-6β-yl)-phthalimide]",23.0 μm,436 μm,61%,"Total Amount of Related Substances [3, 5]: 0.67%; Total Amount of Related Substances [3, 6]: 1.27%; Total Amount of Related Substances ([3]; At Start of Storage): 0.24%"
"O=C1c2ccccc2C(=O)N1[C@@H]1CC[C@@]2(O)[C@H]3Cc4ccc(O)c5c4[C@@]2(CCN3CC2CC2)[C@H]1O5 [Example 8, N-(17-cyclopropylmethyl-4,5α-epoxy-3,14-dihydroxy-morphinan-6β-yl)-phthalimide]",11.8 μm,35.3 μm,92%,–
"O=C1c2ccccc2C(=O)N1[C@@H]1CC[C@@]2(O)[C@H]3Cc4ccc(O)c5c4[C@@]2(CCN3CC2CC2)[C@H]1O5 [Comparative Example 7, N-(17-cyclopropylmethyl-4,5α-epoxy-3,14-dihydroxy-morphinan-6β-yl)-phthalimide]",–,–,–,"Content of Pharmaceutical Active Substance by HPLC [4, 5]: 98.85%; Degree of Decrease Based on Start of Storage [4, 5]: 1.64; Content of Pharmaceutical Active Substance by HPLC [4, 6]: 98.51%; Degree of Decrease Based on Start of Storage [4, 6]: 2.13; Content of Pharmaceutical Active Substance by HPLC ([4]; At Start of Storage): 99.30%"
"O=C1c2ccccc2C(=O)N1[C@@H]1CC[C@@]2(O)[C@H]3Cc4ccc(O)c5c4[C@@]2(CCN3CC2CC2)[C@H]1O5 [Example 4, N-(17-cyclopropylmethyl-4,5α-epoxy-3,14-dihydroxy-morphinan-6β-yl)-phthalimide]",14.6 μm,47.8 μm,96%,Cumulative Frequency of Volume Distribution Which Is Occupied by Particles with Volume-Based Particle Diameter 15 (μm) or Less [2]: 51.7%
"O=C1c2ccccc2C(=O)N1[C@@H]1CC[C@@]2(O)[C@H]3Cc4ccc(O)c5c4[C@@]2(CCN3CC2CC2)[C@H]1O5 [Example 7, N-(17-cyclopropylmethyl-4,5α-epoxy-3,14-dihydroxy-morphinan-6β-yl)-phthalimide]",5.67 μm,16.1 μm,87%,–
"O=C1c2ccccc2C(=O)N1[C@@H]1CC[C@@]2(O)[C@H]3Cc4ccc(O)c5c4[C@@]2(CCN3CC2CC2)[C@H]1O5 [Example 3, N-(17-cyclopropylmethyl-4,5α-epoxy-3,14-dihydroxy-morphinan-6β-yl)-phthalimide]",9.89 μm,29.4 μm and 28.4 μm,94%,Cumulative Frequency of Volume Distribution Which Is Occupied by Particles with Volume-Based Particle Diameter 15 (μm) or Less [2]: 70.8%
"O=C1c2ccccc2C(=O)N1[C@@H]1CC[C@@]2(O)[C@H]3Cc4ccc(O)c5c4[C@@]2(CCN3CC2CC2)[C@H]1O5 [Example 6, N-(17-cyclopropylmethyl-4,5α-epoxy-3,14-dihydroxy-morphinan-6β-yl)-phthalimide]",5.13 μm,11.2 μm,–,"Content of Pharmaceutical Active Substance by HPLC [4, 5]: 99.15%; Degree of Decrease Based on Start of Storage [4, 5]: 1.39; Content of Pharmaceutical Active Substance by HPLC [4, 6]: 99.09%; Degree of Decrease Based on Start of Storage [4, 6]: 1.49; Content of Pharmaceutical Active Substance by HPLC ([4]; At Start of Storage): 99.39%"
